Entries after “also recorded” stand apart in the source; their conditions may differ.

The nature of data set [1]: Ussing chamber: mouse colon tissue penetration and permeability of 5-ALA with SFC, metabolite formation. The format is in vitro ADME, C57BL6 mice. The settings on record: mouse colon vs human colon, 3 hours. Here is the method: (§1) The chambers are made of solid acrylic and supports the tissue membrane in such a way that each side of the membrane is isolated and faces a different chamber representing the luminal (apical) and blood (basal) compartments. The working system consists of a unit to fit a maximum of six vertical chambers, a gas manifold for carbogen purging (95% O2, 5% CO2) and a heater block to maintain the temperature of the chambers at 37° C. during the experiments with the use of a circulating water bath. The chambers are two-piece assemblies held together by a high spring-tension retaining ring to ensure leak-free operation during the experiments.
(§2) The EVOM™ voltohmmeter (World Precision Instruments, Inc., Hertfordshire, UK) and Ag/AgCl electrodes (Harvard Apparatus, Cambridge, UK) were used to measure the trans-epithelial electrical resistance (TEER) of the tissue samples. TEER monitors the presence of functional tight junctions, which are responsible for the barrier function and which limit Paracellular permeation of water and solutes. […]
(§3) For the tissue penetration studies, the freshly excised colon of human subject or C57BL6 mice was collected and transferred to an ice-cold solution of Krebs-Bicarbonate Ringer solution (KBr) of pH 7.4. […] The TEER was continuously monitored during the experiment to confirm the viability and integrity of the tissue.

Data set [2] in a line: Mouse colon model (faecal slurry): stability of 5-ALA with SFC and formation of PpIX. The format is in vitro ADME, C57BL6 mice. Here is the method: (§4) A mouse colonic model based on a mixed fecal inoculum was used to mimic the luminal environment of the mouse large intestine. An anaerobic workstation (Electrotek 500TG™ workstation, Electrotek, West Yorkshire, UK) maintained at 37° C. and 70% relative air humidity was used to set up the model. Three healthy male C57BL6 mice were sacrificed and the fecal contents were collected. The fecal material was transferred in the anaerobic workstation and diluted with freshly prepared basal medium to obtain 20% w/w slurry by homogenization. The basal media provides nutrients and growth factors to the microbiota allowing viability for upto 24 hours. […]
(§5) For 5-ALA analysis, a 150×4.6-mm Jupiter 5 μm 300 Å (Phenomenex, Torrance, CA) C18 column was used using 70% water (0.1% TFA) and 30% acetonitrile (0.1% TFA) as the mobile phase for elution, at a flow rate of 1 ml/min. The analysis was operated at room temperature and fluorescence detection wavelength was set at 395/480 nm excitation/emission. […]
(§6) For PpIX analysis, a 150×4.6-mm Aeris 3.6 μm 100 Å (Phenomenex, Torrance, CA) C18 column was used using 70% acetonitrile and 30% 10 mM TBA solution (pH 7.5) as the mobile phase at a flow rate of 1 ml/min. The analysis was operated at room temperature and fluorescence detection wavelength was set at 400/630 nm excitation/emission. […]

The nature of data set [3]: Human colon model (faecal slurry): stability of 5-ALA with SFC and formation of PpIX. The format is in vitro ADME. On the procedure:
as §4, with “human” for “mouse”, “model.” for “model. Three healthy male C57BL6 mice were sacrificed and the fecal contents were collected.”, “up to” for “upto”, “hours. The homogenized bacterial media was sieved through an open mesh fabric (SefarNitex™, pore size 350 μm) to remove any nonhomogeneous fibrous material.” for “hours.”
as §5, §6

Data set [4] deals with DSS induced colitis mouse model.
Data set [5] is described as follows: Ussing chamber: human colon tissue penetration and permeability of 5-ALA with SFC, metabolite formation. It counts as in vitro ADME. On the procedure: as §1, §2, §3
[6] abbreviates: intra-colonic vs oral, 10 and 100 mg/kg, day 10.
Where [7] appears, read: oral vs intra-colonic dosing, day 10.

For `NCC(=O)CCC(=O)O` [5-ALA, 5-aminolevulinic acid], the “Permeability of 5-ALA across the tissue” value in data set [1] is given as “higher”. Further, in data set [2] (6 mg/ml 5-ALA + 1 mg/ml SFC, 10% w/w mouse faecal slurry, up to 24 hrs), the “Stability of 5-ALA in mouse colon fluid” value is on record as “completely stable”. Further, the “Conversion of 5-ALA into PpIX in mouse colon fluid” value in data set [2] (in the presence of SFC) is “no conversion”. Also, in data set [3] (6 mg/ml 5-ALA + 1 mg/ml SFC, 10% w/w human faecal slurry, up to 24 hrs), the “Stability of 5-ALA in human colon fluid” value is listed as “completely stable; also recorded: very stable”. For the same compound, in data set [3] (in the presence of SFC), the “Conversion of 5-ALA into PpIX in human colon fluid” value is “no conversion; also recorded: no metabolism”. Moreover, in data set [4] (setting [6]), the “Reduction of expression of IL-1β in the colon tissue and plasma” value is listed as “significantly better than after oral administration”; the “Reduction of expression of IL-6 in the colon tissue and plasma” value is “significantly better than after oral administration”; the “Reduction of expression of TNF-α in the colon tissue and plasma” value is reported as “significantly better than after oral administration”. Moreover, in data set [4] (oral vs intra-colonic dosing), the “Expression of HO-1 in the colon tissue and plasma” value is “no significant difference”. For the same compound, in data set [4] (oral vs intra-colonic dosing, 10 and 100 mg/kg), the “Expression of 5-ALA metabolite PpIX in the plasma” value was “Significantly enhanced expression of PpIX was observed in the plasma after oral dosing, but not intra-colonic dosing”. Moreover, in data set [4] (setting [7]), the “Bilirubin expression in the colon tissue and plasma” value is reported as “no significant difference”; the “Biliverdin expression in the colon tissue and plasma” value is given as “no significant difference”. Further, in data set [4] (vs 5-ASA 50 mg/kg oral and intra-colonic), the “Reduction in inflammatory cytokines compared with 5-ASA” value is “superior to 5-ASA given both orally and intra-colonic”. The “Tissue conc. of 5-ALA” value in data set [5] (human colon vs mouse colon, Ussing chamber, 3 hours) is given as “higher in human colon compared to mouse colon”. In data set [5] (human colonic tissue in vitro), the “Penetration of 5-ALA into colon tissue” value was “readily able to penetrate effectively into colon tissue”.

The values above are taken from patent US20250041231A1, “5-AMINOLEVULINIC ACID FOR THE LOCAL TREATMENT OF INFLAMMATORY BOWEL DISEASE” (Intract Pharma Limited, priority 2019, published 2025).
